One test concerns Streptococcus pneumoniae. Nature of the test: microdilution broth assay (NCCLS M7-A1), aerobes. The test is classed as cell-based. Particulars: 11 strains. As to the method:
(§1) Antimicrobial susceptibility testing was performed using a microdilution broth assay according to the guidelines of the National Committee for Clinical Laboratory Standards (NCCLS) Document M7-A1 (NCCLS. 1990).
(§2) The peptide powder as an acetate salt was weighted on an analytical balance and transferred to a polypropylene tube. A solution was prepared at a concentration of 1.024 mg/ml by dissolving the powder in autoclaved (121° C., 20 psi, 20 minutes) deionized water. The peptide solution was used immediately, stored for up to ten days at 4° C., or stored long-term at -70° C. in 1 ml aliquots in polypropylene cryovials.
(§3) Mueller-Hinton broth (MHB) (BBL catalog number 11443) was used in the microtiter plates for diluting the peptide stock solution and for diluting the bacterial inoculum. MBH 5 ml prepared tubes (BBL catalog number 95834) were used to culture an overnight plate of bacteria to the logarithmic phase of growth for inoculating the microtiter plates.
(§4) Inoculum was prepared by taking a sample of bacteria from a 16-20 hours plate culture and inoculating into 5 ml of (MHB) (BBL catalog number 95834) to an absorbance reading of approximately 0.02 at 600 nm (Ab600) on a BECKMAN® DU-64 spectrophotometer. The culture was incubated at 35°-37° C. with shaking (New Brunswick incubator shaker Model G25) and the growth monitored spectrophotometrically until it reached mid-logarithmic phase (Ab600 of approximately 0.06). This absorbance represents approximately 1×10^8 colony-forming units per milliliter (CFUs/ml). The culture was then diluted to approximately 1×10^6 CFUs/ml in autoclaved MHB (BBL catalog number 11443) to produce the inoculum. A sample of the inoculating culture was diluted in 3 mM phosphate buffer (pH 7.2) through a series of 1:10 dilutions and the 10^-4 and 10^-5 dilutions were plated, incubated overnight at 35°-37° C., and counted the next day to verify inoculum size.
(§5) Microtiter plates (Corning manufacturer number 2585096) were prepared with the use of the BECKMAN® Biomek 1000 (Beckman Instruments, Somerset, N.J.) automated laboratory workstation in combination with manual techniques. The microtiter plate was filled with diluent broth using the Biomek 1000 instrument. Peptide stock solution was manually added to the top drug well of the microtiter plate using a Rainin Pipetman Model P-200. The peptide was serially diluted in two-fold dilutions using the Biomek 1000 instrument. One hundred microliters of the standardized bacterial inoculum was added to every well of the microtiter plates (except the blanks) using an Eppendorf Repeater Model 4780 pipet equipped with an Eppendorf 5 ml combitip (catalog number 22 26 130-4).
(§6) The final concentrations of peptide solution in the wells ranged from 0.25 ug/ml to 256 ug/ml. The final concentration of bacteria in the wells was 1-5×10^5 CFUs/ml. The final volume in the wells was 200 μl.
(§7) The microtiter plates were incubated overnight (16-20 hours) at 35°-37° C. in a Precision mechanical convection oven incubator Model 30M. Plates were not stacked more than four high.
For orientation: In broth dilution the organism is exposed to a series of concentrations in liquid medium.

A further test has as its system Group A Streptococcus. Nature of the test: microdilution broth assay (NCCLS M7-A1), aerobes. The test is classed as cell-based. Particulars: 15 strains. The method, then: as §1, §2, §3, §4, §5, §6, §7
In a further test the test system is s. epidermidis. Nature of the test: microdilution broth assay (NCCLS M7-A1), aerobes. The format is cell-based. Particulars: 12 strains. The method, then: as §1, §2, §3, §4, §5, §6, §7
A further test relates to Acinetobacter. Nature of the test: microdilution broth assay (NCCLS M7-A1), aerobes. The format is cell-based. Particulars: 12 strains. As to the method: as §1, §2, §3, §4, §5, §6, §7
In another test the test system is Xanthomonas. Nature of the test: microdilution broth assay (NCCLS M7-A1), aerobes. The format is cell-based. Particulars: 12 strains. The method, then:
as §1, §2, §3, §4, §5, §6, §7

Another test deals with S. aureus. Nature of the test: microdilution broth assay (NCCLS M7-A1), aerobes. The format is cell-based, Staphylococcus aureus. Particulars: 14 strains. The method, then:
as §1, §2
(§8) Mueller-Hinton broth (MHB) (BBL catalog number 11443) was used in the microtiter plates for diluting the peptide stock solution and for diluting the bacterial inoculum. […]
(§9) Inoculum was prepared by taking a sample of bacteria from a 16-20 hours plate culture and inoculating into 5 ml of (MHB) (BBL catalog number 95834) to an absorbance reading of approximately 0.02 at 600 nm (Ab600) on a BECKMAN® DU-64 spectrophotometer. The culture was incubated at 35°-37° C. with shaking (New Brunswick incubator shaker Model G25) and the growth monitored spectrophotometrically until it reached mid-logarithmic phase (Ab600 of approximately 0.06). This absorbance represents approximately 1×10^8 colony-forming units per milliliter (CFUs/ml). […]

In another test the test system is p. aeruginosa. Nature of the test: microdilution broth assay (NCCLS M7-A1), aerobes. The format is cell-based, Pseudomonas aeruginosa. Particulars: 13 strains. The method, then:
as §1, §2, §8, §9

In the next test the test system is T. rubrum ATCC 36262. Nature of the test: microdilution broth assay, dermatophytes. The test is classed as cell-based. Particulars: 48 hours at 30° C., M3 broth. As to the method: (§10) Antimicrobial susceptibility testing was performed using a microdilution broth assay as with the aerobes.
(§11) Antibiotic medium 3 (M3) (BBL catalog number 10932) was used in the microtiter plates for diluting the peptide stock solution and for diluting the bacterial inoculum.
(§12) The dermatophyte cultures were grown on Potato Dextrose Agar for one week. A one centimeter square of growth is teased from the leading edge of the fungus and placed in 2 ml of sterile water in a screw-capped glass tube with glass beads (2 mm) on the bottom. The tubes were vortexed for 20 seconds each and placed in a shaker incubator (New Brunswick incubator shaker Model G25) at 37° C. for 30 minutes. Tubes were removed from the shaker incubator and allowed to settle for 10 minutes. The supernatant was read on a BECKMAN® DU-64 spectrophotometer at 530 nm for percent transmission and adjusted with M3 broth to a transmission of 65%. This culture was then diluted 1:10 in M3 broth for inoculating the microtiter plates.
(§13) The microtiter plates were incubated for 48 hours at 30° C. in a PRECISION® mechanical convection oven incubator Model 4. Plates are never stacked more than four high.
(§14) Candida albicans, a yeast was used for comparison.

A further test has as its system T. mentagrophytes. Nature of the test: microdilution broth assay, dermatophytes. The test is classed as cell-based. Particulars: M3 broth. The method, then:
as §10, §11, §12, §13, §14

The subject of a further test is C. albicans ATCC 14053. Nature of the test: microdilution broth assay, dermatophytes (yeast for comparison). The test is classed as cell-based, Candida albicans. Particulars: 48 hours at 30° C., M3 broth. The method, then: as §10, §11, §12, §13, §14
The subject of another test is Porphyromonas gingivalis. Nature of the test: anaerobic microdilution broth assay (NCCLS M11-T2), oral pathogen. The format is cell-based. The method, then:
(§15) Antimicrobial susceptibility testing was performed using a microdilution broth assay according to the guidelines of the National Committee for Clinical Laboratory Standards (NCCLS) Document M11-T2 (NCCLS, 1989).
(§16) One-half strength Brain Heart Infusion (BHI) (BBL catalog number 11059) supplemented with hemin and menadione is used in the microtiter plates for diluting the peptide stock solution and for diluting the bacterial inoculum.
(§17) Inoculum is prepared by culturing bacteria from an overnight plate in 5 ml of supplemented BHI. The next day the overnight broth culture is read on a BECKMAN® DU-64 spectrophotometer at 630 nm and diluted with supplemented BHI until an absorbance of 0.02 is reached which represents approximately 1×10^6 colony-forming units per milliliter (CFUs/ml). This culture is used to inoculate the microtiter plates. A sample of the inoculating culture is diluted in supplemented BHI through a series of 1:10 dilutions and the 10^-5 and 10^-6 dilutions are plated, incubated 48 hours at 35°-37° C. anaerobically, and counted to verify inoculum size.
(§18) The microtiter plates are incubated anaerobically for 48 hours at 35°-37° C. in a COY® anaerobic chamber Type A. Plates are never stacked more than four high.

Another test has as its system E. coli ATCC 25922. Nature of the test: anaerobic microdilution broth assay (NCCLS M11-T2), standard organism. The test is classed as cell-based, Escherichia coli. Particulars: standard in the P. gingivalis test, anaerobic 48 hours. The method, then:
as §15, §16, §17, §18
E. coli ATCC 25922 was used as a standard.

Regarding “Gly-Ile-Gly-Lys-Phe-Leu-Lys-Lys-Ala-Lys-Lys-Gly-Ile-Gly-Ala-Val-Leu-Lys-Val-Leu-Thr-Thr-Gly-Leu”, the “MIC RANGE, Streptococcus pneumoniae” value in the test with Streptococcus pneumoniae lay in the range of 8 to 16 µg/mL. In addition, the “MIC RANGE, Group A Streptococcus” value with Group A Streptococcus was 2 to 4 µg/mL. Also, the “MIC RANGE, s. epidermidis” value in the test with s. epidermidis was 2 to 4 µg/mL. Also, the “MIC RANGE, Acinetobacter” value in the test with Acinetobacter was 2 to 4 µg/mL. Also, in the test on Xanthomonas, the “MIC RANGE, Xanthomonas” value was in the range of 2 to 8 µg/mL. Besides, in the test with S. aureus, the “MIC RANGE, S. aureus” value fell in the range of 2 to 4 µg/mL. For the same substance, the “MIC RANGE, p. aeruginosa” value with p. aeruginosa was in the range of 2 to 32 µg/mL. The substance also yielded an MIC, T. rubrum ATCC 36262 in the test with T. rubrum ATCC 36262 of 256 µg/mL. In addition, the MIC, T. mentagrophytes ATCC 4808 against T. mentagrophytes (strain ATCC 4808, 48 hours at 30° C.) stood at 16 µg/mL. This substance also yielded an MIC, T. mentagrophytes ATCC 18748 in the test on T. mentagrophytes (strain ATCC 18748, 48 hours at 30° C.) of 16 µg/mL. Moreover, the MIC, C. albicans ATCC 14053 in the test with C. albicans ATCC 14053 came out at 64 µg/mL. Besides, the “MIC, P. gingivalis strain 9-14K-1” value in the test with Porphyromonas gingivalis (strain 9-14K-1, anaerobic 48 hours) was 16 µg/mL. Moreover, the “MIC, P. gingivalis strain 381” value against Porphyromonas gingivalis (strain 381, anaerobic 48 hours) is 64 µg/mL. In addition, the “MIC, P. gingivalis strain 2561” value in the test on Porphyromonas gingivalis (strain 2561, anaerobic 48 hours) was determined as 16 µg/mL. For the same substance, the “MIC, P. gingivalis strain A7A1-28” value against Porphyromonas gingivalis (strain A7A1-28, anaerobic 48 hours) turned out to be 32 µg/mL. The “MIC, P. gingivalis strain ATCC 33277” value against Porphyromonas gingivalis (strain ATCC 33277, anaerobic 48 hours) was in the range of 64 to 128 µg/mL. For the same substance, the “MIC, P. gingivalis strain ESO-127” value in the test on Porphyromonas gingivalis (strain ESO-127, anaerobic 48 hours) was in the range of 4 to 8 µg/mL. The “MIC, P. gingivalis strain FAY-19M-1” value in the test on Porphyromonas gingivalis (strain FAY-19M-1, anaerobic 48 hours) is 16 µg/mL. Also, the “MIC, P. gingivalis strain VAG-1” value with Porphyromonas gingivalis (strain VAG-1, anaerobic 48 hours) turned out to be 64 µg/mL. Besides, the “MIC, P. gingivalis strain VAG-4” value in the test on Porphyromonas gingivalis (strain VAG-4, anaerobic 48 hours) amounted to 32 µg/mL. Also, in the test on Porphyromonas gingivalis (strain W-50, anaerobic 48 hours), the “MIC, P. gingivalis strain W-50” value was 32 µg/mL. The “MIC, E. coli ATCC 25922” value against E. coli ATCC 25922 turned out to be 8 µg/mL.

The values above are taken from patent US5714467A, “Antibacterial and antimalarial hybrid peptides” (The Rockefeller University, priority 1993, dated 1998).
